# ChEMBL document CHEMBL5154856, “Targeting the tumor microenvironment by an enzyme-responsive prodrug of tubulin destabilizer for triple-negative breast cancer therapy with high safety” (Eur J Med Chem, 2022)
# Legend:
# [1] = tested on: MCF7; experiment: Antiproliferative activity against human MCF7 cells assessed as inhibition of cell growth incubated for 48 hrs in presence of beta-glucuronidase by MTT assay; format: functional, cell-based; settings: MCF7, 48 h
# [2] = tested on: SK-OV-3; experiment: Antiproliferative activity against human SK-OV-3 cells assessed as inhibition of cell growth incubated for 48 hrs in presence of beta-glucuronidase by MTT assay; format: functional, cell-based; settings: SK-OV-3, 48 h
# [3] = Stability of compound in phosphate buffer at pH 7.4 assessed as Escherichia coli beta-glucuronidase mediated compound cleavage at 1.2 mg measured after 30 mins by HPLC analysis; format: ADME; settings: pH 7.4, 0.5 h
# [4] = Metabolic stability in rat liver microsomes assessed as intrinsic clearance in liver at 10 mM measured up to 60 mins in presence of NADPH by LC-MS/MS analysis; format: ADME, Microsome; settings: read-out: CLH
# [5] = Toxicity in nude mouse assessed as effect on total protein level in serum at 40 mg/kg, iv administered qd for 3 days (reference value: 47.3 g/L); format: organism-based; settings: in vivo, 72 h, time 3 day
# [6] = Toxicity in nude mouse assessed as effect on albumin level in serum at 40 mg/kg, iv administered qd for 3 days (reference value: 31.2 g/L); format: organism-based; settings: in vivo, 72 h, time 3 day
# [7] = Cardiotoxicity in nude mouse assessed as abnormal spikes at 20 to 40 mg/kg, iv administered once daily for 3 days by ECG analysis; format: toxicity, organism-based; settings: in vivo, 72 h, dose 20-40 mg/kg, time 3 day
# [8] = Toxicity in nude mouse assessed as effect on mean corpuscular hemoglobin concentration at 40 mg/kg, iv administered qd for 3 days (reference value: 473 g/L); format: organism-based; settings: in vivo, 72 h, time 3 day
# [9] = Toxicity in nude mouse assessed as effect on gamma-glutamyl transpeptidase level in serum at 40 mg/kg, iv administered qd for 3 days (Rvb < 2 U/L); format: organism-based; settings: in vivo, 72 h, time 3 day
# [10] = Toxicity in nude mouse xenografted with human MDA-MB-231 cells assessed as pathological changes in liver at 20 to 40 mg/kg, iv administered every 2 days for 14 days by H and E staining based assay; format: organism-based; settings: in vivo, 336 h, dose 20-40 mg/kg, time 14 day
# [11] = Cardiotoxicity in nude mouse assessed as prolonged QT intervals at 20 to 40 mg/kg, iv administered once daily for 3 days by ECG analysis; format: toxicity, organism-based; settings: in vivo, 72 h, dose 20-40 mg/kg, time 3 day
# [12] = Toxicity in nude mouse xenografted with human MDA-MB-231 cells assessed as effect on body weight at 20 to 40 mg/kg, iv administered every 2 days for 14 days; format: organism-based; settings: in vivo, 336 h, dose 20-40 mg/kg, time 14 day
# [13] = tested on: HeLa; experiment: Antiproliferative activity against human HeLa cells assessed as inhibition of cell growth incubated for 48 hrs in absence of beta-glucuronidase by MTT assay; format: functional, cell-based
structure (smiles),measurement,setting,value
COc1ccc([C@H]2[C@H](CO)C(=O)N2c2cc(OC)c(OC)c(OC)c2)cc1OCc1ccc(O[C@@H]2O[C@H](C(=O)O)[C@@H](O)[C@H](O)[C@H]2O)cc1,IC50,[1],15.7 nM
same,IC50,[2],14.1 nM
same,Stability,[3],Unstable
same,CLint scaled,[4],< 38 mL/min/kg
same,Activity,[5],45.5 g/L
same,Activity,[6],29.5 g/L
same,Activity,[7],Non-Toxic
same,Activity,[8],512 g/L
same,Activity,[9],< 2 U/L
same,Activity,[10],Non-Toxic
same,Activity,[11],Non-Toxic
same,Activity,[12],Non-Toxic
same,IC50,[13],> 50 µM
